Results from patent US8680159B2, “Bradykinin 1 receptor modulating compounds” (Gruenenthal GmbH, priority 2010, dated 2014).

Tests used:
[1] = biological target: T1, B1R receptor of the rat (CHO K1 cells stably transfected with the B1R gene of the rat) (Rattus norvegicus, UniProt P97583); assay: Functional study on the bradykinin receptor 1 (B1R), Ca2+ fluorescence (Fluo-4) FLIPR/Novostar assay, rB1R cells; assay type: cell-based; conditions: for inhibition at 10 µM: CHO-K1, 10 μM, read-out: % Inhibition (r-B1R) at 10 μM
T1 construct: expressed in transfected cells; host or cells: CHO K1 cells (Chinese hamster ovary), stably transfected
T1 sequence (P97583 1-337): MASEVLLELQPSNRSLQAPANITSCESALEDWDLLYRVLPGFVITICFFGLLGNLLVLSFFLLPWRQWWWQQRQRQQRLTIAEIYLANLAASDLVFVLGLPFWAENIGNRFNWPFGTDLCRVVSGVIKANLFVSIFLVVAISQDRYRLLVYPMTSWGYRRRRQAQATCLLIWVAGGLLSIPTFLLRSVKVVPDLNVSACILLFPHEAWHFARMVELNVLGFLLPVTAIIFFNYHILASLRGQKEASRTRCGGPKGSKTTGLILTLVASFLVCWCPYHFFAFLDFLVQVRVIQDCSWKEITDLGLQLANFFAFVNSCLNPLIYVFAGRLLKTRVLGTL
How it was run: (§1)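 Ca2+ influx (Fluo-4, peak fluorescence, λex 488/λem 540 nm) was measured in CHO K1 lines expressing rat or human B1R. After a 10 μM test-compound pre-addition scoring % activation, cells received EC80 agonist: Des-Arg9-bradykinin for rat, Lys-Des-Arg9-bradykinin for human. Antagonism was expressed as % of maximum inhibition, with IC50 from varied concentrations.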

[2] = biological target: T2, human B1R receptor (CHO K1 cells stably transfected with the human B1R gene) (Homo sapiens, UniProt P46663); assay: Functional study on the bradykinin receptor 1 (B1R), Ca2+ fluorescence (Fluo-4) FLIPR/Novostar assay, hB1R cells; assay type: cell-based; conditions: CHO-K1, read-out: % Inhibition (h-B1R) at 10 μM
T2 construct: expressed in transfected cells; host or cells: CHO K1 cells (Chinese hamster ovary), stably transfected
T2 sequence (P46663 1-353): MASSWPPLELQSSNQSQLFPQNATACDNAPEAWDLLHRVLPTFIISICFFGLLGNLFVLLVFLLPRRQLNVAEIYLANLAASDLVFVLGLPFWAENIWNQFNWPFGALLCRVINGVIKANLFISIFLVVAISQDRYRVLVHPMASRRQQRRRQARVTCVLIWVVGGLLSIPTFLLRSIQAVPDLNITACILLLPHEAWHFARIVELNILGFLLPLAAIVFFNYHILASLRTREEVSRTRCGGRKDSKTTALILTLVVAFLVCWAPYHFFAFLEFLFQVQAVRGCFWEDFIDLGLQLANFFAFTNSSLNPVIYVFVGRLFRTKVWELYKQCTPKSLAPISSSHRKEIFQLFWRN
How it was run: as §1

inhibition at 10 µM [1] | inhibition at 10 µM [2] | % Inhibition (r-B1R) at 10 μM ([1]; 10 μM) | Structure (SMILES)
104% | 100% |  | CN(C(=O)NC1CCc2ccc(C(=O)N(C)C3CCN(c4ccncc4)CC3)cc21)c1ccccc1Cl (stereo not shown) [CC_H-44, 3-[[(2-Chlorophenyl)-methyl-carbamoyl]amino]-N-methyl-N-(1-pyridin-4-yl-piperidin-4-yl)-2,3-dihydro-1H-indene-5-carboxylic acid amide]
88% | 96% |  | CN(C(=O)c1ccc2c(c1)C(N(C)C(=O)c1cncnc1)CC2)C1CCN(c2ccncc2)CC1 (stereo not shown) [CC_H-45, N-Methyl-N-[6-[methyl-(1-pyridin-4-yl-piperidin-4-yl)-carbamoyl]-2,3-dihydro-1H-inden-1-yl]-pyrimidine-5-carboxylic acid amide]
104% | 99% |  | CN(C(=O)c1ccc2c(c1)C(NS(=O)(=O)c1c(Cl)cccc1C(F)(F)F)CCO2)C1CCN(c2ccncc2)CC1 (stereo not shown) [CC_H-47, 4-[[[2-Chloro-6-(trifluoromethyl)-phenyl]sulfonyl]amino]-N-methyl-N-(1-pyridin-4-yl-piperidin-4-yl)-3,4-dihydro-2H-chromene-6-carboxylic acid amide]
96% | 99% |  | CN(C(=O)c1ccc2c(c1)C(NS(=O)(=O)Cc1ccccc1C(F)(F)F)CC2)C1CCN(c2ccc3cnccc3c2)CC1 (stereo not shown) [CC_H-55, N-(1-Isoquinolin-6-yl-piperidin-4-yl)-N-methyl-3-[[[2-(trifluoromethyl)-phenyl]-methylsulfonyl]amino]-2,3-dihydro-1H-indene-5-carboxylic acid amide]
77% | 96% |  | CN(C(=O)c1ccc2c(c1)CCC2NC(=O)C1CCCCC1)C1CCN(c2ccncc2)CC1 (stereo not shown) [CC_H-58, 1-(Cyclohexanecarbonylamino)-N-methyl-N-(1-pyridin-4-yl-piperidin-4-yl)-2,3-dihydro-1H-indene-5-carboxylic acid amide]
101% | 84% |  | CN(C(=O)c1ccc2c(c1)C(NC(=O)c1c(Cl)cccc1C(F)(F)F)CC2)C1CCN(c2ccc3cnccc3c2)CC1 (stereo not shown) [CC_H-62, 3-[[2-Chloro-6-(trifluoromethyl)-benzoyl]amino]-N-(1-isoquinolin-6-yl-piperidin-4-yl)-N-methyl-2,3-dihydro-1H-indene-5-carboxylic acid amide]
87% | 100% |  | CN(C(=O)c1ccc2c(c1)CCC2NC(=O)c1cc(F)ccc1Cl)C1CCN(c2ccncc2)CC1 (stereo not shown) [CC_H-64, 1-[(2-Chloro-5-fluoro-benzoyl)amino]-N-methyl-N-(1-pyridin-4-yl-piperidin-4-yl)-2,3-dihydro-1H-indene-5-carboxylic acid amide]
86% | 99% |  | Cc1cccc(C)c1C(=O)NC1CCc2cc(C(=O)N(C)C3CCN(c4ccncc4)CC3)ccc21 (stereo not shown) [CC_H-66, 1-[(2,6-Dimethyl-benzoyl)amino]-N-methyl-N-(1-pyridin-4-yl-piperidin-4-yl)-2,3-dihydro-1H-indene-5-carboxylic acid amide]

Continued, molecule first:

Structure (SMILES) | inhibition at 10 µM [1] | inhibition at 10 µM [2] | % Inhibition (r-B1R) at 10 μM ([1]; 10 μM)
CC(C)CC(=O)NC1CCc2ccc(C(=O)N(C)C3CCN(c4ccncc4)CC3)cc21 (stereo not shown) [CC_H-41, N-Methyl-3-(3-methyl-butanoylamino)-N-(1-pyridin-4-yl-piperidin-4-yl)-2,3-dihydro-1H-indene-5-carboxylic acid amide] | 104% | 100% | 
CN(C(=O)c1ccc2c(c1)C(NC(=O)c1cnccc1C(F)(F)F)CCO2)C1CCN(c2ccncc2)CC1 (stereo not shown) [CC_H-42, N-[6-[Methyl-(1-pyridin-4-yl-piperidin-4-yl)-carbamoyl]-3,4-dihydro-2H-chromen-4-yl]-4-(trifluoromethyl)-pyridine-3-carboxylic acid amide] | 104% | 99% | 
CC(C)CC(=O)NC1CC(C)(C)c2ccc(C(=O)N(C)C3CCN(c4ccncc4)CC3)cc21 (stereo not shown) [CC_H-43, N,1,1-Trimethyl-3-(3-methyl-butanoylamino)-N-(1-pyridin-4-yl-piperidin-4-yl)-2,3-dihydro-indene-5-carboxylic acid amide] | 105% | 100% | 
CN(C(=O)c1ccc2c(c1)C(N(C)S(=O)(=O)Cc1ccccc1C(F)(F)F)CC2)C1CCN(c2ccncc2)CC1 (stereo not shown) [CC_H-46, N-Methyl-3-[methyl-[[2-(trifluoromethyl)-phenyl]-methylsulfonyl]-amino]-N-(1-pyridin-4-yl-piperidin-4-yl)-2,3-dihydro-1H-indene-5-carboxylic acid amide] | 104% | 99% | 
CN(C(=O)c1ccc2c(c1)C(NC(=O)c1cncnc1)CC2)C1CCN(c2ccncc2)CC1 (stereo not shown) [CC_H-48, N-[6-[Methyl-(1-pyridin-4-yl-piperidin-4-yl)-carbamoyl]-2,3-dihydro-1H-inden-1-yl]-pyrimidine-5-carboxylic acid amide] | 78% | 96% | 
CN(C(=O)c1ccc2c(c1)C(NC(=O)CCC1CCCC1)CCO2)C1CCN(c2ccncc2)CC1 (stereo not shown) [CC_H-49, 4-(3-Cyclopentyl-propanoylamino)-N-methyl-N-(1-pyridin-4-yl-piperidin-4-yl)-3,4-dihydro-2H-chromene-6-carboxylic acid amide] | 102% | 99% | 
O=C(NCCC1CCN(c2ccncc2)CC1)c1ccc2c(c1)C(NS(=O)(=O)c1c(Cl)cccc1C(F)(F)F)CC2 (stereo not shown) [CC_H-50, 3-[[[2-Chloro-6-(trifluoromethyl)-phenyl]sulfonyl]amino]-N-[2-(1-pyridin-4-yl-piperidin-4-yl)-ethyl]-2,3-dihydro-1H-indene-5-carboxylic acid amide] | 101% | 100% | 
CN(C(=O)N(C)C1CCc2ccc(C(=O)N(C)C3CCN(c4ccncc4)CC3)cc21)c1ccccc1Cl (stereo not shown) [CC_H-51, 3-[[(2-Chlorophenyl)-methyl-carbamoyl]-methyl-amino]-N-methyl-N-(1-pyridin-4-yl-piperidin-4-yl)-2,3-dihydro-1H-indene-5-carboxylic acid amide] | 90% | 99% | 
CN(C(=O)c1ccc2c(c1)C(NC(=O)c1cccc(Cl)c1Cl)CC2)C1CCN(c2ccc3cnccc3c2)CC1 (stereo not shown) [CC_H-52, 3-[(2,3-Dichloro-benzoyl)amino]-N-(1-isoquinolin-6-yl-piperidin-4-yl)-N-methyl-2,3-dihydro-1H-indene-5-carboxylic acid amide] | 98% | 99% | 
CN(C(=O)c1ccc2c(c1)C(NS(=O)(=O)c1c(Cl)cccc1C(F)(F)F)CC2)C1CCN(c2ccncc2)CC1 (stereo not shown) [CC_H-54, 3-[[[2-Chloro-6-(trifluoromethyl)-phenyl]sulfonyl]amino]-N-methyl-N-(1-pyridin-4-yl-piperidin-4-yl)-2,3-dihydro-1H-indene-5-carboxylic acid amide] | 104% | 100% | 
CN(C(=O)NC1CCOc2ccc(C(=O)N(C)C3CCN(c4ccncc4)CC3)cc21)c1ccccc1Cl (stereo not shown) [CC_H-57, 4-[[(2-Chlorophenyl)-methyl-carbamoyl]amino]-N-methyl-N-(1-pyridin-4-yl-piperidin-4-yl)-3,4-dihydro-2H-chromene-6-carboxylic acid amide] |  | 100% | 101%
CN(C(=O)c1ccc2c(c1)C(NC(=O)CCC1CCCC1)CC2)C1CCN(c2ccncc2)CC1 (stereo not shown) [CC_H-59, 3-(3-Cyclopentyl-propanoylamino)-N-methyl-N-(1-pyridin-4-yl-piperidin-4-yl)-2,3-dihydro-1H-indene-5-carboxylic acid amide] | 103% | 99% | 
CN(C(=O)c1ccc2c(c1)CCC2NS(=O)(=O)Cc1ccccc1C(F)(F)F)C1CCN(c2ccncc2)CC1 (stereo not shown) [CC_H-61, N-Methyl-N-(1-pyridin-4-yl-piperidin-4-yl)-1-[[[2-(trifluoromethyl)-phenyl]-methylsulfonyl]amino]-2,3-dihydro-1H-indene-5-carboxylic acid amide] | 80% | 100% | 
CN(C(=O)c1ccc2c(c1)C(NC(=O)c1cc(F)ccc1Cl)CCO2)C1CCN(c2ccncc2)CC1 (stereo not shown) [CC_H-63, 4-[(2-Chloro-5-fluoro-benzoyl)amino]-N-methyl-N-(1-pyridin-4-yl-piperidin-4-yl)-3,4-dihydro-2H-chromene-6-carboxylic acid amide] | 103% | 99% | 
CN(C(=O)c1ccc2c(c1)CCC2NC(=O)CCC1CCCC1)C1CCN(c2ccncc2)CC1 (stereo not shown) [CC_H-65, 1-(3-Cyclopentyl-propanoylamino)-N-methyl-N-(1-pyridin-4-yl-piperidin-4-yl)-2,3-dihydro-1H-indene-5-carboxylic acid amide] | 48% | 98% | 
